Source: ChEMBL document CHEMBL1142969, “Venturamides A and B: antimalarial constituents of the panamanian marine Cyanobacterium Oscillatoria sp” (J Nat Prod, 2007)

Experiments:
Leishmania donovani = assay: Growth inhibition of Leishmania donovani MHOM/SD/00-1S after 72 hrs by amastigote assay; assay type: functional, organism-based
MCF7 = assay: Growth inhibition of MCF7 cells; assay type: functional, cell-based; conditions: Homo sapiens
Trypanosoma cruzi = assay: Growth inhibition of Trypanosoma cruzi recombinant Tulahuen C4; assay type: functional, organism-based
Vero = assay: Cytotoxicity against Vero cells after 72 hrs; assay type: cell-based; conditions: Chlorocebus sabaeus
Plasmodium falciparum = assay: Antiplasmodial activity against chloroquine-resistant Plasmodium falciparum W2 Indochina; assay type: functional, organism-based

SMILES: Cc1oc2nc1C(=O)N[C@H](C)c1nc(cs1)C(=O)N[C@H](C(C)C)c1nc(cs1)C(=O)N[C@@H]2C [VENTURAMIDE A]
- IC50 (Leishmania donovani): > 20 µM
- IC50 (MCF7): 13.1 µM
- IC50 (Trypanosoma cruzi): 14.6 µM
- IC50 (Vero): 86 µM
- IC50 (Plasmodium falciparum): 8.2 µM

SMILES: Cc1oc2nc1C(=O)N[C@H]([C@@H](C)O)c1nc(cs1)C(=O)N[C@H](C(C)C)c1nc(cs1)C(=O)N[C@@H]2C [VENTURAMIDE B]
- IC50 (Leishmania donovani): > 19 µM
- IC50 (MCF7): > 54 µM
- IC50 (Trypanosoma cruzi): 15.8 µM
- IC50 (Vero): 56 µM
- IC50 (Plasmodium falciparum): 5.2 µM
